Legend:
KRas^WT = target: T1, KRas^WT (Homo sapiens, UniProt P01116); assay: KRas binding assay (TR-FRET tracer displacement), KRas WT; details: TR-FRET tracer displacement, KRas WT
T1 construct: Biotinylated KRas (corresponding to amino acids 1-169, produced at Accelegan Inc.); biotin (biotinylated); purchased Accelegan Inc

[1] = tested on: KRas-mediated phosphorylation of ERK in A549 cells; assay: Inhibition of KRas-mediated phosphorylation of ERK (Cisbio HTRF pERK), A549 cells; type: cell-based; details: Homo sapiens, HTRF pERK
Outline: (§1)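 Compound treatment lasts 3 hrs on 6,000 seeded cells, testing 10 doses from a 10 uM top concentration in 3-fold decrements at 0.8% final DMSO. Trametinib at 0.2 uM defines the Min signal. Detection is HTRF on cold-lysed cell extracts.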

[2] = tested on: KRas-mediated phosphorylation of ERK in H460 cells; assay: Inhibition of KRas-mediated phosphorylation of ERK (Cisbio HTRF pERK), H460 cells; type: cell-based; details: Homo sapiens, NCI-H460, HTRF pERK
Outline: (§2)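 Signal read by HTRF (d2/Cryptate antibody pair, 2 hr room-temperature incubation on lysate). Cells: 6,000 per well, 3 hr compound exposure. Titration: 10 uM highest, 3-fold, 10 points.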

[3] = tested on: KRas-mediated phosphorylation of ERK in H358 cells; assay: Inhibition of KRas-mediated phosphorylation of ERK (Cisbio HTRF pERK), H358 cells; type: cell-based; details: Homo sapiens, NCI-H358, HTRF pERK
Outline: as §2

[4] = tested on: KRas-mediated phosphorylation of ERK in PSN1 cells; assay: Inhibition of KRas-mediated phosphorylation of ERK (Cisbio HTRF pERK), PSN1 cells; type: cell-based; details: Homo sapiens
Outline: (§3)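 Day 1 seeding: 6,000 cells per well, RPMI/10% FBS, left overnight at 37° C. with 5% CO2. Plates then stood covered for 4 h at room temperature prior to HTRF detection of pERK.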

KRas^G12D = target: T2, KRas^G12D (Homo sapiens, UniProt P01116, G12D); assay: KRas binding assay (TR-FRET tracer displacement), KRas G12D
T2 construct: Biotinylated KRas (corresponding to amino acids 1-169, produced at Accelegan Inc.); biotin (biotinylated); purchased Accelegan Inc

[5] = tested on: KRas-mediated phosphorylation of ERK in H727 cells; assay: Inhibition of KRas-mediated phosphorylation of ERK (Cisbio HTRF pERK), H727 cells; type: cell-based; details: Homo sapiens, NCI-H727, H727 cells; HTRF pERK
Outline: as §2

[6] = tested on: KRas-mediated phosphorylation of ERK in MKN1 cells; assay: Inhibition of KRas-mediated phosphorylation of ERK (Cisbio HTRF pERK), MKN1 cells; type: cell-based; details: Homo sapiens, MKN-1
Outline: as §3

KRas^G12C = target: T3, KRas^G12C (Homo sapiens, UniProt P01116, G12C); assay: KRas binding assay (TR-FRET tracer displacement), KRas G12C; details: TR-FRET tracer displacement, KRas G12C
T3 construct: Biotinylated KRas (corresponding to amino acids 1-169, produced at Accelegan Inc.); biotin (biotinylated); purchased Accelegan Inc

[7] = tested on: KRas-mediated phosphorylation of ERK in AsPC-1 cells; assay: Inhibition of KRas-mediated phosphorylation of ERK (Cisbio HTRF pERK), AsPC-1 cells; type: cell-based; details: Homo sapiens, ASPC1, AsPC-1 cells; HTRF pERK
Outline: as §2

[8] = tested on: KRas-mediated phosphorylation of ERK in HCT116 cells; assay: Inhibition of KRas-mediated phosphorylation of ERK (Cisbio HTRF pERK), HCT116 cells; type: cell-based; details: Homo sapiens, HCT-116, HTRF pERK
Outline: as §1

KRas^G12V = target: T4, KRas^G12V (Homo sapiens, UniProt P01116, G12V); assay: KRas binding assay (TR-FRET tracer displacement), KRas G12V
T4 construct: Biotinylated KRas (corresponding to amino acids 1-169, produced at Accelegan Inc.); biotin (biotinylated); purchased Accelegan Inc

KRas^G12S = target: T5, KRas^G12S (Homo sapiens, UniProt P01116, G12S); assay: KRas binding assay (TR-FRET tracer displacement), KRas G12S; details: TR-FRET tracer displacement, KRas G12S
T5 construct: Biotinylated KRas (corresponding to amino acids 1-169, produced at Accelegan Inc.); biotin (biotinylated); purchased Accelegan Inc
T5 sequence (P01116 1-169 isoform P01116-2 G12S): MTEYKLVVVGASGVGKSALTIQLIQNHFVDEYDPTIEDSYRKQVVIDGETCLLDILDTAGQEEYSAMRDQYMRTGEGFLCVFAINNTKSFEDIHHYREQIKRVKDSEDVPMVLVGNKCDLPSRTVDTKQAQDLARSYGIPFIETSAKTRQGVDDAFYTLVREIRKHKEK

T1 sequence (P01116 1-169 isoform P01116-2): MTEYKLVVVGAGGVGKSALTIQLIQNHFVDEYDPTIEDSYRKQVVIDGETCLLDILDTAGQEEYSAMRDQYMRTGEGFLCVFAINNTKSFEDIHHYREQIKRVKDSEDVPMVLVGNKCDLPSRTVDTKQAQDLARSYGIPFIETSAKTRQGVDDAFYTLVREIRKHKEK
T3 sequence (P01116 1-169 isoform P01116-2 G12C): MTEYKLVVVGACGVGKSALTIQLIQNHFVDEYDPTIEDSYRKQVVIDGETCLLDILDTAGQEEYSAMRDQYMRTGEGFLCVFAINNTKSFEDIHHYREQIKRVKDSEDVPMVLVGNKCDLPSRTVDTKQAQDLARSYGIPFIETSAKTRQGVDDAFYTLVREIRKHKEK
T2 sequence (P01116 1-169 isoform P01116-2 G12D): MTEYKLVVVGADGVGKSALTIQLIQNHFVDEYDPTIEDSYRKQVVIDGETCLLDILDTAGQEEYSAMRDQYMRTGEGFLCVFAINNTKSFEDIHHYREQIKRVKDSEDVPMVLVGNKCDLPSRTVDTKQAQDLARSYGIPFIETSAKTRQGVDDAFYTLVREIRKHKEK
T4 sequence (P01116 1-169 isoform P01116-2 G12V): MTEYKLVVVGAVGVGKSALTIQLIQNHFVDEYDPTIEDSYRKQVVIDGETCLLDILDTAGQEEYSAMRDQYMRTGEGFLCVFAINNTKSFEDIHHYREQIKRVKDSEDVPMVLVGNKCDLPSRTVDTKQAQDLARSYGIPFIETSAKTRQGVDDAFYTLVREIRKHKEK

IC50 (KRas^WT) [nM] | IC50 [1] [nM] | IC50 [2] [nM] | IC50 [3] [nM] | IC50 [4] [nM] | IC50 (KRas^G12D) [nM] | IC50 [5] [nM] | IC50 [6] [nM] | IC50 (KRas^G12C) [nM] | IC50 [7] [nM] | IC50 [8] [nM] | IC50 (KRas^G12V) [nM] | IC50 (KRas^G12S) [nM] | SMILES
< 2 | 1 | 2 | 1 | 246 | < 2 | 3 | 0.3 | < 2 | 3 | 9 | < 2 | < 2 | CCc1c(F)ccc2cc(O)cc(-c3ncc4c(N5C[C@@H]6C[C@H](C5)[C@H](O)C6)nc(OCC56CCCN5C/C(=C\F)C6)nc4c3F)c12 (stereo partly drawn) [Example 793, (1R,5R,6R)-3-(7-(8-ethyl-7-fluoro-3-hydroxynaphthalen-1-yl)-8-fluoro-2-(((Z)-2-(fluoromethylene)tetrahydro-1H-pyrrolizin-7a(5H)-yl)methoxy)pyrido[4,3-d]pyrimidin-4-yl)-3-azabicyclo[3.2.1]octan-6-ol]
< 2 | 12 | 6 | 5 | 37 | < 2 | 27 | 1 | < 2 | 32 | 26 | < 2 | < 2 | CCc1c(F)ccc2cc(O)cc(-c3ncc4c(N5CCC[C@]6(C5)NC(=O)NC6=O)nc(OCC56CCCN5C/C(=C\F)C6)nc4c3F)c12 (stereo partly drawn) [Example 794, (5R)-7-(7-(8-ethyl-7-fluoro-3-hydroxynaphthalen-1-yl)-8-fluoro-2-(((Z)-2-(fluoromethylene)tetrahydro-1H-pyrrolizin-7a(5H)-yl)methoxy)pyrido[4,3-d]pyrimidin-4-yl)-1,3,7-triazaspiro[4.5]decane-2,4-dione]
< 2 | 41 | 28 | 4 | 4790 | < 2 | 11 | 4 | < 2 | 2 | 130 | < 2 | < 2 | CCc1c(F)ccc2cc(O)cc(-c3ncc4c(N5CCCn6nc(C(=O)N(C)C)cc6C5)nc(OCC56CCCN5C/C(=C\F)C6)nc4c3F)c12 (stereo not drawn) [Example 795, (Z)-5-(7-(8-ethyl-7-fluoro-3-hydroxynaphthalen-1-yl)-8-fluoro-2-((2-(fluoromethylene)tetrahydro-1H-pyrrolizin-7a(5H)-yl)methoxy)pyrido[4,3-d]pyrimidin-4-yl)-N,N-dimethyl-5,6,7,8-tetrahydro-4H-pyrazolo[1,5-a][1,4]diazepine-2-carboxamide]
< 2 | 3 | 4 | 3 | 946 | < 2 | 19 | 0.3 | < 2 | 17 | 25 | < 2 | < 2 | CCc1c(F)ccc2cc(O)cc(-c3ncc4c(N5C[C@@H]6C[C@H](C5)[C@H](O)C6)nc(OCC56CCCN5CC(=C(F)F)C6)nc4c3F)c12 (stereo partly drawn) [Example 798, (1R,5R,6R)-3-(2-((2-(difluoromethylene)tetrahydro-1H-pyrrolizin-7a(5H)-yl)methoxy)-7-(8-ethyl-7-fluoro-3-hydroxynaphthalen-1-yl)-8-fluoropyrido[4,3-d]pyrimidin-4-yl)-3-azabicyclo[3.2.1]octan-6-ol]
< 2 | 9 | 8 | 4 | 988 | < 2 | 20 | 0.9 | < 2 | 7 | 30 | < 2 | < 2 | C=C1CN2CC(=C)CC2(COc2nc(N3CCC[C@@](C)(O)C3)c3cnc(-c4cc(O)cc5ccc(F)c(CC)c45)c(F)c3n2)C1 [Example 799, (R)-1-(2-((2,6-dimethylenetetrahydro-1H-pyrrolizin-7a(5H)-yl)methoxy)-7-(8-ethyl-7-fluoro-3-hydroxynaphthalen-1-yl)-8-fluoropyrido[4,3-d]pyrimidin-4-yl)-3-methylpiperidin-3-ol]
< 2 | 3 | 3 | 1 | 587 | < 2 | 3 | 0.3 | < 2 | 6 | 13 | < 2 | < 2 | C=C1CN2CCCC2(COc2nc(N3C[C@@H]4C[C@H](C3)[C@H](O)C4)c3cnc(-c4cc(O)cc5ccc(F)c(CC)c45)c(F)c3n2)C1 (stereo partly drawn) [Example 800, (1R,5R,6R)-3-(7-(8-ethyl-7-fluoro-3-hydroxynaphthalen-1-yl)-8-fluoro-2-((2-methylenetetrahydro-1H-pyrrolizin-7a(5H)-yl)methoxy)pyrido[4,3-d]pyrimidin-4-yl)-3-azabicyclo[3.2.1]octan-6-ol]
< 2 | 7 | 4 | 1 | 117 | < 2 | 12 | 0.1 | < 2 | 3 | 15 | < 2 | < 2 | C#Cc1c(F)ccc2cc(O)cc(-c3ncc4c(N5CCC[C@@](C)(O)C5)nc(OC[C@]56CCCN5C/C(=C\F)C6)nc4c3F)c12 [Example 801, (3R)-1-(7-(8-ethynyl-7-fluoro-3-hydroxynaphthalen-1-yl)-8-fluoro-2-(((Z)-2-(fluoromethylene)tetrahydro-1H-pyrrolizin-7a(5H)-yl)methoxy)pyrido[4,3-d]pyrimidin-4-yl)-3-methylpiperidin-3-ol]
4 | 68 | 75 | 33 | 7630 | 4 | 86 | 0.4 | 2 | 92 | 309 | 2 | 2 | CCc1c(F)ccc2cc(O)cc(-c3ncc4c(N5CC=CCC5)nc(OC[C@@]56CCCN5C[C@H](F)C6)nc4c3F)c12 [Example 921, 4-(4-(3,6-dihydropyridin-1(2H)-yl)-8-fluoro-2-(((2R,7aS)-2-fluorotetrahydro-1H-pyrrolizin-7a(5H)-yl)methoxy)pyrido[4,3-d]pyrimidin-7-yl)-5-ethyl-6-fluoronaphthalen-2-ol]
< 2 | 17 | 15 | 5 | 2280 | < 2 | 59 | 0.9 | < 2 | 58 | 72 | < 2 | < 2 | CCc1c(F)ccc2cc(O)cc(-c3ncc4c(N5C[C@@H]6C[C@H](C5)[C@H](O)C6)nc(OCC56CCCN5CC5(CC5)C6)nc4c3F)c12 (stereo partly drawn) [Example 931, (1R,5R,6R)-3-(2-((dihydro-1′H,3′H-spiro[cyclopropane-1,2′-pyrrolizin]-7a′ (5′H)-yl)methoxy)-7-(8-ethyl-7-fluoro-3-hydroxynaphthalen-1-yl)-8-fluoropyrido[4,3-d]pyrimidin-4-yl)-3-azabicyclo[3.2.1]octan-6-ol]
